# Assay results taken from ChEMBL document CHEMBL3885861, “Open TG-GATES”.
# Organism: Rattus norvegicus
# Test: Open TG-GATES - Regimen: Single
# Type: toxicity, organism-based, Sprague-Dawley
# Set-up: regimen Single, gender Male, age 6 weeks
# Conditions: in vivo, po, route gavage; for A/G / ALP / ALT / AST / BUN / CRE / Ca / Cl / DBIL / GLC / IP / K / LDH / Na / PL / RALB / TBIL / TC / TG / TP / gamma-GTP: tissue Plasma; for APTT / Bas / Eos / Fbg / Hb / Ht / Lym / MCH / MCHC / MCV / Mono / Neu / PT / Plat / RBC / Ret / WBC: tissue Blood; for KIDNEY_L / KIDNEY_R / KIDNEY_TOTAL: tissue Kidney; for LIVER: tissue Liver
# [1] = 30 mg/kg, 9 h, dose level Middle
# [2] = 30 mg/kg, 24 h, dose level Middle
# [3] = 100 mg/kg, 3 h, dose level High
structure (smiles),measurement,setting,value
O=C1CN(/N=C/c2ccc([N+](=O)[O-])o2)C(=O)N1 [NITROFURANTOIN],A/G,[1],1.6
same,ALP,[1],825.2 IU/L
same,ALT,[1],33.2 IU/L
same,AST,[1],62 IU/L
same,BUN,[1],10.4 mg/dL
same,CRE,[1],0.3 mg/dL
same,Ca,[1],10.4 mg/dL
same,Cl,[1],101.8 meq/L
same,DBIL,[1],0.072 mg/dL
same,GLC,[1],199 mg/dL
same,IP,[1],9.7 mg/dL
same,K,[1],3.8 meq/L
same,LDH,[1],197.6 IU/L
same,Na,[1],139.6 meq/L
same,PL,[1],130.2 mg/dL
same,RALB,[1],3.3 g/dL
same,TBIL,[1],0.1 mg/dL
same,TC,[1],67.4 mg/dL
same,TG,[1],57.4 mg/dL
same,TP,[1],5.4 g/dL
same,gamma-GTP,[1],0.4 IU/L
same,TERMINAL_BW,[2],231.7 g
same,APTT,[2],18.6 s
same,Bas,[2],0%
same,Eos,[2],1%
same,Fbg,[2],219.2 mg/dL
same,Hb,[2],13.3 g/dL
same,Ht,[2],37.8%
same,Lym,[2],77.8%
same,MCH,[2],21.9 pg
same,MCHC,[2],35.1%
same,MCV,[2],62.4 fL
same,Mono,[2],2.4%
same,Neu,[2],17.4%
same,PT,[2],12.7 s
same,Plat,[2],115.4 x10_4/uL
same,RBC,[2],604.6 x10_4/ul
same,Ret,[2],7.1%
same,WBC,[2],92 x10_2/uL
same,KIDNEY_L,[2],1.1 g
same,KIDNEY_R,[2],1.1 g
same,KIDNEY_TOTAL,[2],2.1 g
same,LIVER,[2],11.1 g
same,A/G,[2],1.6
same,ALP,[2],1093.6 IU/L
same,ALT,[2],39 IU/L
same,AST,[2],67.8 IU/L
same,BUN,[2],13.6 mg/dL
same,CRE,[2],0.4 mg/dL
same,Ca,[2],10.7 mg/dL
same,Cl,[2],102.2 meq/L
same,DBIL,[2],0.1 mg/dL
same,GLC,[2],211.8 mg/dL
same,IP,[2],7.6 mg/dL
same,K,[2],4.1 meq/L
same,LDH,[2],176 IU/L
same,Na,[2],139.8 meq/L
same,PL,[2],140.8 mg/dL
same,RALB,[2],3.3 g/dL
same,TBIL,[2],0.2 mg/dL
same,TC,[2],69.4 mg/dL
same,TG,[2],115 mg/dL
same,TP,[2],5.4 g/dL
same,gamma-GTP,[2],1 IU/L
same,TERMINAL_BW,[3],220.5 g
same,TERMINAL_BW,"100 mg/kg, 3 h, dose level Low",205.8 g
same,APTT,[3],19.6 s
same,Bas,[3],0%
same,Eos,[3],1%
same,Fbg,[3],215.6 mg/dL
same,Hb,[3],13.1 g/dL
same,Ht,[3],37.2%
same,Lym,[3],78.6%
same,MCH,[3],21.8 pg
same,MCHC,[3],35.1%
same,MCV,[3],62.1 fL
same,Mono,[3],2.6%
same,Neu,[3],16.4%
same,PT,[3],12.8 s
same,Plat,[3],113 x10_4/uL
same,RBC,[3],599.8 x10_4/ul
same,Ret,[3],8%
same,WBC,[3],80.6 x10_2/uL
same,APTT,"100 mg/kg, 3 h, dose level Low",16.1 s
same,Eos,"100 mg/kg, 3 h, dose level Low",1.2%
same,Fbg,"100 mg/kg, 3 h, dose level Low",227.8 mg/dL
same,Hb,"100 mg/kg, 3 h, dose level Low",13.4 g/dL
same,Ht,"100 mg/kg, 3 h, dose level Low",40.5%
same,Lym,"100 mg/kg, 3 h, dose level Low",75.6%
same,MCH,"100 mg/kg, 3 h, dose level Low",21.4 pg
same,MCHC,"100 mg/kg, 3 h, dose level Low",33%
same,MCV,"100 mg/kg, 3 h, dose level Low",64.7 fL
same,Mono,"100 mg/kg, 3 h, dose level Low",6.8%
same,PT,"100 mg/kg, 3 h, dose level Low",11.9 s
same,Plat,"100 mg/kg, 3 h, dose level Low",124.7 x10_4/uL
same,RBC,"100 mg/kg, 3 h, dose level Low",625.4 x10_4/ul
same,Ret,"100 mg/kg, 3 h, dose level Low",7.7%
same,WBC,"100 mg/kg, 3 h, dose level Low",78.5 x10_2/uL
same,KIDNEY_L,[3],1 g
same,KIDNEY_R,[3],1 g
same,KIDNEY_TOTAL,[3],2 g
same,KIDNEY_L,"100 mg/kg, 3 h, dose level Low",0.9 g
same,KIDNEY_TOTAL,"100 mg/kg, 3 h, dose level Low",1.9 g
same,LIVER,[3],10 g
same,LIVER,"100 mg/kg, 3 h, dose level Low",8.6 g
same,A/G,[3],1.6
same,ALP,[3],909.6 IU/L
same,ALT,[3],38 IU/L
same,AST,[3],69.8 IU/L
same,BUN,[3],12 mg/dL
same,CRE,[3],0.4 mg/dL
same,Ca,[3],10.7 mg/dL
same,Cl,[3],101.6 meq/L
same,DBIL,[3],0.068 mg/dL
same,GLC,[3],183.2 mg/dL
same,IP,[3],9.2 mg/dL
same,K,[3],4 meq/L
same,LDH,[3],229.4 IU/L
same,Na,[3],140.4 meq/L
same,PL,[3],137.6 mg/dL
same,RALB,[3],3.4 g/dL
same,TBIL,[3],0.1 mg/dL
same,TC,[3],77.2 mg/dL
same,TG,[3],66.2 mg/dL
same,TP,[3],5.5 g/dL
same,gamma-GTP,[3],0.8 IU/L
same,A/G,"100 mg/kg, 3 h, dose level Low",2.4
same,ALP,"100 mg/kg, 3 h, dose level Low",1349.8 IU/L
same,ALT,"100 mg/kg, 3 h, dose level Low",39.2 IU/L
same,AST,"100 mg/kg, 3 h, dose level Low",64.6 IU/L
same,BUN,"100 mg/kg, 3 h, dose level Low",11.2 mg/dL
same,CRE,"100 mg/kg, 3 h, dose level Low",0.3 mg/dL
same,Ca,"100 mg/kg, 3 h, dose level Low",11.1 mg/dL
same,Cl,"100 mg/kg, 3 h, dose level Low",104.2 meq/L
same,DBIL,"100 mg/kg, 3 h, dose level Low",0.006 mg/dL
same,GLC,"100 mg/kg, 3 h, dose level Low",187.6 mg/dL
same,IP,"100 mg/kg, 3 h, dose level Low",9.6 mg/dL
same,K,"100 mg/kg, 3 h, dose level Low",4.3 meq/L
same,LDH,"100 mg/kg, 3 h, dose level Low",91.8 IU/L
same,Na,"100 mg/kg, 3 h, dose level Low",138.8 meq/L
same,PL,"100 mg/kg, 3 h, dose level Low",144 mg/dL
same,RALB,"100 mg/kg, 3 h, dose level Low",4 g/dL
same,TBIL,"100 mg/kg, 3 h, dose level Low",0.032 mg/dL
same,TC,"100 mg/kg, 3 h, dose level Low",91.2 mg/dL
same,TG,"100 mg/kg, 3 h, dose level Low",63.2 mg/dL
same,TP,"100 mg/kg, 3 h, dose level Low",5.7 g/dL
same,gamma-GTP,"100 mg/kg, 3 h, dose level Low",1 IU/L
same,TERMINAL_BW,"100 mg/kg, 6 h, dose level High",216.2 g
